The assay concerns Plasmopara viticola. Description: Curative test of 24 hours on grapevine infected with Plasmopara viticola. The assay is classed as in vivo. As to conditions: single compound, curative spray on Chardonay grapevine, assessed after six days at 20° C. How it is done: The trials consisted in curative tests of 24 hours on grapevine infected with Plasmopara viticola.
Grapevine (Chardonay variety) plants are grown on sandy soil in plastic pots, with one plant per pot. The plants which are two months old (6- to 7-leaf stage) are inoculated by spraying an aqueous suspension of Plasmopara viticola sporocysts obtained from infected leaves. The concentration of sporocysts is about 100 000 units per ml.
After infection, the inoculated plants are subjected to a curative treatment by spraying with compound (I) alone and compound (II) alone, and with a mixture of compound (I) and compound (II), in each case applied at a dose of 500 l/ha.
After infection and curative treatment, the plants are covered and left for six days at 20° C.
The percentage control of the disease (efficacy: see below) is calculated for each treatment with reference to the untreated plants and the expected results are calculated using the Colby formula (see below).
The difference between the real results and the expected results is used to determine the synergy between the two fungicidal compounds of the composition according to the invention.
The efficacy of the treatment is calculated using the following Abbott formula: […]
Analysis of the results is carried out using the Colby model:
[formula] in which E represents the expected percentage of inhibition of the disease for the combination of the two fungicides at defined doses (for example equal to x and y respectively), x is the percentage of inhibition observed for the disease by the compound (I) at a defined dose (equal to x), y is the percentage of inhibition observed for the disease by the compound (II) at a defined dose (equal to y). When the percentage of inhibition observed for the combination is greater than E, there is a synergistic effect.

Consider `O=C(NCc1ncc(C(F)(F)F)cc1Cl)c1c(Cl)cccc1Cl` [(Ia), 2,6-dichloro-N-{[3-chloro-5-(trifluoromethyl)-2-pyridinyl]methyl}-benzamide], for which the Percentage efficacy by setting is: (level 0.1 ppm) 11.9%; (level 1 ppm) 58.2%; (level 5 ppm) 65.7%.
Consider mancozeb, for which the Percentage efficacy reads like this: (level 1 ppm) 23.1%; (level 10 ppm) 5.2%; (level 25 ppm) 17.2%.

For the origin of these results see patent publication US7326725B2, “Fungicidal composition based on at least one pyridylmethylbenzamide derivatives and at least on dithiocarbamate derivative” (Bayer Cropscience S.A., priority 2001, dated 2008).
